Molecules are shown by their SMILES. Residue numbers refer to the chain shown, from its start.

The results in this text go back to patent publication US12583855B2, “RET selective inhibitor, preparation method therefor and use thereof” (SHOUYAO HOLDINGS (BEIJING) CO., LTD., priority 2019, dated 2026).

One data set addresses T1, RET^WT (Homo sapiens, UniProt P07949).
T1 construct: GST-RET^WT (658-1114 aa, final concentration of 0.5 nM)
T1 sequence (P07949 658-1114): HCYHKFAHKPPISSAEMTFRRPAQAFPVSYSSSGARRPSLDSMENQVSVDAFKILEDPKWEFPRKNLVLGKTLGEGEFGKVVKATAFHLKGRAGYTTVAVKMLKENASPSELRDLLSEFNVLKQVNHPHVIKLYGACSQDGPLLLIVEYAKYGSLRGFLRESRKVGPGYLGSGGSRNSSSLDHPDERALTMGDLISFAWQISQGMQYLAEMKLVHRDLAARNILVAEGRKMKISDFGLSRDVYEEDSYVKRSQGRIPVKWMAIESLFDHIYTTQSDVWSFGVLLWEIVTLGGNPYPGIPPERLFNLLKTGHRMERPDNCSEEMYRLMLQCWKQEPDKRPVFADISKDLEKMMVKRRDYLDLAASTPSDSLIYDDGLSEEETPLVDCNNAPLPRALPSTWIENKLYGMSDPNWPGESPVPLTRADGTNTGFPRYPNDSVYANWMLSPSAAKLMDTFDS
As to the kind of experiment: In vitro enzymatic activity assay on RET^WT (HTRF). The data set is classed as biochemical. As to conditions: GST-RET^WT (658-1114 aa) 0.5 nM, ATP 25 μM. An outline of the steps: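 Reaction run 2 h at 23 °C in HEPES pH 7.5 buffer with Na3VO4, MgCl2, DTT, Tween 20 and BSA; compounds tested at 7 concentrations (5-fold serial dilution in DMSO from 0.2 mM stock). HTRF detection with TK antibody and streptavidin-XL665; IC50 from curve fitting.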
In general terms: Time-resolved FRET reads energy transfer from a long-lived donor to a nearby acceptor.

Another data set has as its target T2, RET^V804M (Homo sapiens, UniProt P07949, V804M).
T2 construct: GST-RET^V804M (658-1114 aa, final concentration of 0.02 nM)
T2 sequence (P07949 658-1114 V804M): T1 sequence (P07949 658-1114) with V147M
As to the kind of experiment: In vitro enzymatic activity assay on RET^V804M (HTRF). The data set is classed as biochemical. The note with it: GST-RET^V804M (658-1114 aa) 0.02 nM, ATP 1.5 μM.

The next data set concerns the target VEGFR2 (Homo sapiens, UniProt P35968). As to the kind of experiment: In vitro enzymatic activity assay on VEGFR2 (HTRF). As to conditions: GST-VEGFR2 0.1 nM, ATP 2.5 μM. The data set is classed as biochemical. An outline of the steps:
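GST-VEGFR2 (0.1 nM final) with 2.5 μM ATP and 1 μM TK peptide substrate in HEPES pH 7.5 buffer with Mg²⁺/Mn²⁺, 1.5 h at 23 °C. HTRF read-out (665/620 nm ratio) after adding TK antibody and streptavidin-XL665. IC50 from 7-point, 5-fold dilution series.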

In the next data set the test system is TT cells. As to the kind of experiment: TT cell proliferation activity (Cell-Titer Glo). The data set is classed as cell-based. The note with it: TT human thyroid carcinoma cells, 120 h. The procedure:
4. Determination of TT Cell Proliferation Activity of Compounds
TT cells, a human thyroid carcinoma cell line, were cultured in Ham's F-12K medium supplemented with 15% fetal bovine serum (FBS, purchased from Biological Industries, BI) and 1% penicillin/streptomycin double antibody (P/S, purchased from Life Technology) under conditions of 37° C. and 5% CO2. TT cells were plated in a 96-well plate (#3917 purchased from Corning) at a concentration of 5000 cells/195 μL/well the day before compound was detected. The compounds were diluted 3-fold with 100% DMSO starting from 10 mM (10 concentrations in total) after 24 h, and 2 μL of each concentration was diluted in 48 μL of Ham's F-12K medium. 5 μL of each diluted compound was added to the plated Cell suspension, the compound and cells were co-incubated in a cell incubator for 120 h (5 days), after the medium was aspirated. 25 μL of Cell-Titer Glo (G7570, purchased from Promega) reagent was added and re-incubated for 5-10 min. Fluorescence value was then read on Envision and the data were calculated using GraphPad Prism software to obtain IC50 values for inhibition of cell proliferation by the compounds.

The next data set concerns KIF5B-RET/HEK293T cells. As to the kind of experiment: Cell proliferation activity in KIF5B-RET/HEK293T cells (Cell-Titer Glo). The note with it: Homo sapiens, HEK-293T, 72 h, read-out: KIFSB-RETV^804M/293T (Cell)IC50. The data set is classed as cell-based.
The nature of data set [1]: Pharmacokinetic data of compounds in male SD rats. The data set is classed as in vivo. The note with it: rat, po, intragastric, 5 mg/kg, suspension MC 0.5%, plasma. The procedure: 6. Pharmacokinetic Data of Compounds
Male SD rats (Beijing Vital River Laboratory Animal Technology Co., Ltd) were divided into groups. 3 in each group, received intragastric administration with the suspension of the test sample (5 mg/kg, suspensions MC 0.5%), respectively. Animals were fasted overnight prior to the experiment from 10 h before dosing to 4 h after dosing. Blood was collected 0.25, 0.5, 1, 2, 4, 6, 8, and 24 h after administration, respectively. After isoflurane anesthesia using a small animal anesthesia machine, 0.3 mL of whole blood samples was taken through the fundus venous plexus, placed in a heparin anticoagulant tube, and were centrifuged at 4° C. 4000 rpm for 5 min plasma was transferred to the centrifuge tube, and stored at −80° C. until analysis. Samples in the plasma were extracted using protein precipitation and the extracts were analyzed by LC/MS.

Sequence of VEGFR2 (P35968 20-1356): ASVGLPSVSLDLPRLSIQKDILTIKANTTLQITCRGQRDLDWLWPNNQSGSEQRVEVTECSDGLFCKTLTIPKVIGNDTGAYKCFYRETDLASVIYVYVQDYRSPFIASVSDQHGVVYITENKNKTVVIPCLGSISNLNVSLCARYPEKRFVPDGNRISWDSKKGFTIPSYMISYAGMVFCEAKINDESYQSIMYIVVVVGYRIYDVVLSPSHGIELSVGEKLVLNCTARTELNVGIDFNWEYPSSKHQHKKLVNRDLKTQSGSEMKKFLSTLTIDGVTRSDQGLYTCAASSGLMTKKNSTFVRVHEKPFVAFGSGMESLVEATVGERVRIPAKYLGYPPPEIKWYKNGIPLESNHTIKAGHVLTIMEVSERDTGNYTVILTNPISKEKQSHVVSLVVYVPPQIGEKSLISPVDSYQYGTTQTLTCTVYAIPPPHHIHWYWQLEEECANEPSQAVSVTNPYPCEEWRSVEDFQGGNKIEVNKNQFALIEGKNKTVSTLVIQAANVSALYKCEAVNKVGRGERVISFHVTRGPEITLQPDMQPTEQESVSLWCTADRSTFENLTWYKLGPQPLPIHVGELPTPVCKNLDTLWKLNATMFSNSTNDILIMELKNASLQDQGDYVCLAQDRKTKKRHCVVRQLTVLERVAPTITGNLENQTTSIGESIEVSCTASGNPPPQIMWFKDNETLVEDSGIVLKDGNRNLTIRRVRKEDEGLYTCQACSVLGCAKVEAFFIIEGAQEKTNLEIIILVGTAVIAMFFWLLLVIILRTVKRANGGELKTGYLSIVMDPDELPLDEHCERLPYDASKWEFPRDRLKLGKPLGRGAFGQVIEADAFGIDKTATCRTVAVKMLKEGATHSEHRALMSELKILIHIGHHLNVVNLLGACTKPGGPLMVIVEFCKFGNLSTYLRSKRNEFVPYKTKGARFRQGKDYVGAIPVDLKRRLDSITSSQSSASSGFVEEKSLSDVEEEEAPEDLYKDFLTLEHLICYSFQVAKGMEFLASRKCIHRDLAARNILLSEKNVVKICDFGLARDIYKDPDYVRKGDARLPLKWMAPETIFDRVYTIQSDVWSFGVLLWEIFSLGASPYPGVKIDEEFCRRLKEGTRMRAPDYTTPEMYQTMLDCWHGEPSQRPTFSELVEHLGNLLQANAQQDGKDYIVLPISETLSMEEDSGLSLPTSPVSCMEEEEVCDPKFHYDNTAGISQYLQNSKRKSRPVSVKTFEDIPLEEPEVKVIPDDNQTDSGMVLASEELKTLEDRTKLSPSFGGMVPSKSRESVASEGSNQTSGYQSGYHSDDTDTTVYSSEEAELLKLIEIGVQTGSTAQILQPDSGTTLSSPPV

As for `COCC1=C(C(=O)N2CCN(c3ccc(-c4cc(-c5cnn(C)c5)cn5ncc(C#N)c45)cn3)CC2)CCC1` [Example 12, 4-(6-(4-(2-(methoxymethyl)cyclopent-1-ene-1-carbonyl)piperazin-1-yl)pyridin-3-yl)-6-(1-methyl-1Hpyrazol-4-yl)pyrazolo[1,5-a]pyridine-3-carbonitrile], the IC50 on RET^WT was 0.65 nM; against RET^V804M, 1.47 nM; against VEGFR2, 14.4 nM; in the data set on TT cells, 6.3 nM; with KIF5B-RET/HEK293T cells it was 141 nM.
With `Cn1cc(-c2cc(-c3ccc(N4CC5CC(C4)N5Cc4cccc(S(C)(=O)=O)c4)nc3)c3c(C#N)cnn3c2)cn1` [Example 20, 6-(1-methyl-1Hpyrazol-4-yl)-4-(6-(6-(3-(methylsulfonyl)benzyl)-3,6-diazabicyclo[3.1.1]heptan-3-yl)pyridin-3-yl)pyrazolo[1,5-a]pyridine-3-carbonitrile], the IC50 against RET^WT is 0.092 nM; at RET^V804M, 0.237 nM; on VEGFR2, 6.44 nM; in the data set with TT cells it was 6.58 nM; with KIF5B-RET/HEK293T cells, 146 nM.
The matching figures for `CSc1cc(CN2C3CC2CN(c2ccc(-c4cc(-c5cnn(C(F)F)c5)cn5ncc(C#N)c45)cn2)C3)ccn1` [Example 72, 6-(1-(difluoromethyl)-1Hpyrazol-4-yl)-4-(6(6-((2-(methylthio)pyridin-4-yl)methyl)-3,6-diazabicyclo[3.1.1]heptan-3-yl)pyridin-3-yl)pyrazolo[1,5-a]pyridine-3-carbonitrile]: 0.147 nM, 0.735 nM, 7.74 nM, 24.9 nM and 387 nM.
In the case of `Cn1cc(-c2cc(-c3ccc(N4CCN(Cc5cccc(S(C)(=O)=O)c5)CC4)nc3)c3c(C#N)cnn3c2)cn1` [Example 15, 6-(1-methyl-1Hpyrazol-4-yl)-4-(6-(4-(3-(methylsulfonyl)benzyl)piperazin-1-yl)pyridin-3-yl)pyrazolo[1,5-a]pyridine-3-carbonitrile], on VEGFR2, the IC50 is 11.8 nM. Besides, the IC50 with TT cells is 17.8 nM. In data set [1], the AUC(0-inf) was 6650 ng·h/mL, the peak level (Cmax) was 1330 ng/mL, the Tmax was determined as 1.17 h and the half-life is 3.56 h.
In turn, `CS(=O)(=O)c1ccc(CN2C3CC2CN(c2ccc(-c4cc(-c5cnn(C(F)F)c5)cn5ncc(C#N)c45)cn2)C3)cc1` [Example 45, 6-(1-difluoromethyl-1Hpyrazol-4-yl)-4-(6-(6-(4-(methylsulfonyl)benzyl)-3,6-diazabicyclo[3.1.1]heptan-3-yl)pyridin-3-yl) pyrazolo[1,5-a] pyridine-3-carbonitrile] came in with an IC50 against RET^WT of 0.159 nM. On RET^V804M, the IC50 is 0.822 nM. This compound also showed an IC50 against VEGFR2 of 4.96 nM. In addition, the IC50 with TT cells turned out to be 22.7 nM. Besides, in data set [1], the AUC(0-inf) was found to be 27500 ng·h/mL, the peak level (Cmax) was 3560 ng/mL, the time of peak concentration (Tmax) stood at 1.83 h and the half-life was 3.21 h.
Consider `CSc1ccc(CN2CCN(c3ccc(-c4cc(-c5cnn(C)c5)cn5ncc(C#N)c45)cn3)CC2)cn1` [Example 10, 6-(1-methyl-1Hpyrazol-4-yl)-4-(6-(4-((6-(methylthio)pyridin-3-yl)methyl)piperazin-1-yl)pyridin-3-yl)pyrazolo[1,5-a]pyridine-3-carbonitrile], for which, at VEGFR2, the IC50 was determined as 13.9 nM. In the data set on TT cells, this compound gave an IC50 of 23.8 nM. In data set [1], the AUC(0-inf) turned out to be 15300 ng·h/mL, the peak level (Cmax) was 1490 ng/mL, the Tmax came to 4 h and the half-life was 3.38 h.
For the compound `Cn1cc(-c2cc(-c3ccc(N4CC5CC(C4)N5Cc4ccc(S(C)(=O)=O)cc4)nc3)c3c(C#N)cnn3c2)cn1` [Example 25, 6-(1-methyl-1Hpyrazol-4-yl)-4-(6-(6-(4-(methylsulfonyl)benzyl)-3,6-diazabicyclo[3.1.1]heptan-3-yl)pyridin-3-yl)pyrazolo[1,5-a]pyridine-3-carbonitrile], the IC50 is 0.148 nM against RET^WT, 0.236 nM on RET^V804M, 5.96 nM with TT cells and 146 nM in the data set with KIF5B-RET/HEK293T cells.
Regarding `CSc1ccc(CN2C3CC2CN(c2ccc(-c4cc(-c5cnn(C)c5)cn5ncc(C#N)c45)cn2)C3)nc1` [Example 22, 6-(1-methyl-1Hpyrazol-4-yl)-4-(6-(6-((5-(methylthio)pyridin-2-yl)methyl)-3,6-diazabicyclo[3.1.1]heptan-3-yl)pyridin-3-yl)pyrazolo[1,5-a]pyridine-3-carbonitrile], the IC50 at RET^WT came out at 0.124 nM; against RET^V804M, 0.242 nM; with TT cells, 12.9 nM; in the data set with KIF5B-RET/HEK293T cells it was 147 nM.
For the compound `CSc1ccc(CN2CCN(c3ccc(-c4cc(-c5cnn(C)c5)cn5ncc(C#N)c45)cn3)CC2)cc1` [Example 17, 6-(1-methyl-1Hpyrazol-4-yl)-4-(6-(4-(4-(methylthio)benzyl)piperazin-1-yl)pyridin-3-yl)pyrazolo[1,5-a]pyridine-3-carbonitrile], the IC50 on VEGFR2 stood at 14.1 nM; in the data set with KIF5B-RET/HEK293T cells it was 394 nM.
`Cn1cc(-c2cc(-c3ccc(N4CCN(Cc5ccc(S(C)(=O)=O)cc5)CC4)nc3)c3c(C#N)cnn3c2)cn1` [Example 16, 6-(1-methyl-1Hpyrazol-4-yl)-4-(6-(4-(4-(methylsulfonyl)benzyl)piperazin-1-yl)pyridin-3-yl)pyrazolo[1,5-a]pyridine-3-carbonitrile] returned an IC50 against VEGFR2 of 8.95 nM. The IC50 in the data set on TT cells is 36.7 nM. In data set [1], the AUC(0-inf) came out at 42700 ng·h/mL, the Cmax amounted to 3790 ng/mL, the Tmax is 4 h and the half-life was 4.08 h.
Consider `CC1=C(C(=O)N2CCN(c3ccc(-c4cc(-c5cnn(C)c5)cn5ncc(C#N)c45)cn3)CC2)CCC1` [Example 6, 6-(1-methyl-1Hpyrazol-4-yl)-4-(6-(4-(2-methylcyclopent-1-ene-1-carbonyl)piperazin-1-yl)pyridin-3-yl)pyrazolo[1,5-a]pyridine-3-carbonitrile], for which the IC50 on RET^WT came to 0.332 nM; at RET^V804M, 1.25 nM; on VEGFR2 it was 8.91 nM; in the data set on TT cells it was 13.8 nM.

Broadly, the AUC(0-inf) is the area under the concentration-time curve extrapolated to infinity. Read a low AUC(0-inf) as low exposure. As a reminder, the Cmax is the peak of the concentration-time curve. For orientation: Tmax means the time from dosing to the highest level. As usually defined, the half-life is how long it takes for the measured level to halve. Low readings indicate rapid decline, high ones slow decline.
